The test relates to L1210 leukemia ip in BDF1 mice, survival T/C. In words: NCI In Vivo Anticancer Drug Screen. Data for tumor model L1210 Leukemia (intraperitoneal) in B6D2F1 (BDF1) mice. The note with it: endpoint: mean survival time, higher = longer survival. In short, it runs like this:
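Survival endpoint. Drug-treated group vs vehicle group, expressed as T divided by C. Tumor passaged by transplantation.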

[1] abbreviates: dose: 100.0 mg/kg/injection, schedule: Q04DX003 (ip), vehicle: saline with Tween-80.
[2] abbreviates: dose: 200.0 mg/kg/injection, schedule: Q04DX003 (ip), vehicle: saline with Tween-80.
Setting [3] is: dose: 400.0 mg/kg/injection, schedule: Q04DX003 (ip), vehicle: saline with Tween-80.
Where [4] appears, read: dose: 50.0 mg/kg/injection, schedule: Q01DX009 (ip), vehicle: Klucel (hydroxypropylcellulose) (HPC).
The mark [5] stands for this setting: dose: 100.0 mg/kg/injection, schedule: Q01DX009 (ip), vehicle: Klucel (hydroxypropylcellulose) (HPC).
Where [6] appears, read: dose: 200.0 mg/kg/injection, schedule: Q01DX009 (ip), vehicle: Klucel (hydroxypropylcellulose) (HPC).
The mark [7] stands for this setting: dose: 100.0 mg/kg/injection, schedule: Q04DX003 (ip), vehicle: Klucel (hydroxypropylcellulose) (HPC).
[8] abbreviates: dose: 200.0 mg/kg/injection, schedule: Q04DX003 (ip), vehicle: Klucel (hydroxypropylcellulose) (HPC).
Setting [9] is: dose: 400.0 mg/kg/injection, schedule: Q04DX003 (ip), vehicle: Klucel (hydroxypropylcellulose) (HPC).
[10] abbreviates: dose: 100.0 mg/kg/injection, schedule: Q01DX001 (ip), vehicle: saline.
Setting [11] is: dose: 100.0 mg/kg/injection, schedule: Q04DX003 (ip), vehicle: saline.
The mark [12] stands for this setting: dose: 200.0 mg/kg/injection, schedule: Q01DX001 (ip), vehicle: saline.
Where [13] appears, read: dose: 200.0 mg/kg/injection, schedule: Q04DX003 (ip), vehicle: saline.
The mark [14] stands for this setting: dose: 400.0 mg/kg/injection, schedule: Q01DX001 (ip), vehicle: saline.
The mark [15] stands for this setting: dose: 400.0 mg/kg/injection, schedule: Q04DX003 (ip), vehicle: saline.
[16] abbreviates: dose: 100.0 mg/kg/injection, schedule: Q01DX009 (ip), vehicle: saline with Tween-80.
Setting [17] is: dose: 200.0 mg/kg/injection, schedule: Q01DX009 (ip), vehicle: saline with Tween-80.
Where [18] appears, read: dose: 400.0 mg/kg/injection, schedule: Q01DX009 (ip), vehicle: saline with Tween-80.
Where [19] appears, read: dose: 50.0 mg/kg/injection, schedule: Q01DX001 (ip), vehicle: carboxymethylcellulose (CMC).
[20] abbreviates: dose: 200.0 mg/kg/injection, schedule: Q01DX001 (ip), vehicle: carboxymethylcellulose (CMC).
[21] abbreviates: dose: 400.0 mg/kg/injection, schedule: Q01DX001 (ip), vehicle: carboxymethylcellulose (CMC).

Structures are written as SMILES. “And” between values parts separate entries of the source, which are not always exact repeats. Equal values may be shown once. Inconclusive results and toxic doses are left out.

On to `[O-][n+]1ccccc1CCO`, for which the T/C is 98 % of control (dose: 100.0 mg/kg/injection, schedule: Q04DX002 (ip), vehicle: saline); 106 % of control (dose: 200.0 mg/kg/injection, schedule: Q04DX002 (ip), vehicle: saline); 92 % of control (dose: 400.0 mg/kg/injection, schedule: Q04DX002 (ip), vehicle: saline).

As for `CC(=O)C(C=NCCN=CC(C(C)=O)C(C)=O)C(C)=O.[Ni]`, the T/C (dose: 100.0 mg/kg/injection, schedule: Q04DX002 (ip), vehicle: saline with Tween-80) is 98 % of control and the T/C (dose: 200.0 mg/kg/injection, schedule: Q04DX002 (ip), vehicle: saline with Tween-80) was 98 % of control.

On to `CCC(Cl)COP(=O)(OCC(Cl)CC)OC(c1ccc(Cl)c(Cl)c1)P(=O)(OCC(Cl)CC)OCC(Cl)CC` (stereo not drawn), for which the T/C is 95 % of control (dose: 50.0 mg/kg/injection, schedule: Q01DX001 (ip), vehicle: saline with Tween-80); 103 % of control (dose: 100.0 mg/kg/injection, schedule: Q01DX001 (ip), vehicle: saline with Tween-80); 93 % of control (dose: 200.0 mg/kg/injection, schedule: Q01DX001 (ip), vehicle: saline with Tween-80).

On to `CC(C)C(C(=O)O)N1C(=O)C2C3C=CC(C3)C2C1=O` (stereo not drawn), for which the T/C is 102 % of control under setting [1], 102 % of control under setting [2] and 97 % of control under setting [3].

Regarding `CSc1nnnn1-c1ccccc1`, the T/C (dose: 100.0 mg/kg/injection, schedule: Q04DX003 (ip), vehicle: acetone) is 100 % of control; the T/C under setting [1] is 102 % of control; the T/C under setting [2] is 100 % of control; the T/C (dose: 400.0 mg/kg/injection, schedule: Q04DX003 (ip), vehicle: acetone) was 100 % of control.

As to `CC1CCc2c(c3c(=O)[nH]c(=O)[nH]c3oc2=O)C1` (stereo not drawn), the T/C reads like this: under setting [4], 105 % of control; under setting [5], 93 % of control; under setting [6], 89 % of control.

Take `CC1CC(N2CSC(=S)N(C3CC(C)CC(C)(C)C3)C2)CC(C)(C)C1` (stereo not drawn): the T/C was 93 % of control (dose: 25.0 mg/kg/injection, schedule: Q01DX009 (ip), vehicle: Klucel (hydroxypropylcellulose) (HPC)); 86 % of control and 90 % of control under setting [5]; 89 % of control under setting [7]; 94 % of control under setting [8]; 91 % of control under setting [9].

On to `CCCCNC(=O)Nc1ccc(OC)cc1Cl`, for which the T/C runs as follows: under setting [5], 102 % of control; under setting [7], 90 % of control; under setting [6], 106 % of control; under setting [8], 97 % of control; (dose: 400.0 mg/kg/injection, schedule: Q01DX009 (ip), vehicle: Klucel (hydroxypropylcellulose) (HPC)) 87 % of control; under setting [9], 92 % of control.

Turning to `N#CC(C(=O)c1ccccc1)=C([SH2+])[SH2+].N#CC(C(=O)c1ccccc1)=C([SH2+])[SH2+].[Cu+2].c1ccc([AsH](c2ccccc2)(c2ccccc2)c2ccccc2)cc1`, the T/C was 103 % of control under setting [10]; 100 % of control under setting [11]; 105 % of control under setting [12]; 96 % of control under setting [13]; 98 % of control under setting [14]; 98 % of control under setting [15].

In the case of `CC(=O)c1c[nH]c2c(O)ccc(O)c12`, the T/C is, setting by setting: (dose: 6.25 mg/kg/injection, schedule: Q04DX002 (ip), vehicle: Klucel (hydroxypropylcellulose) (HPC)) 93 % of control; (dose: 12.5 mg/kg/injection, schedule: Q04DX002 (ip), vehicle: Klucel (hydroxypropylcellulose) (HPC)) 96 % of control; (dose: 25.0 mg/kg/injection, schedule: Q04DX002 (ip), vehicle: Klucel (hydroxypropylcellulose) (HPC)) 99 % of control and 107 % of control.

For the molecule `CCOC(=O)Nc1cc(Cl)c(N)c(NC(=O)OCC)n1`, the T/C runs as follows: under setting [16], 94 % of control; under setting [1], 98 % of control; under setting [17], 100 % of control; under setting [2], 93 % of control; under setting [18], 97 % of control; under setting [3], 100 % of control.

For `O=c1ccc(=O)c2c(=O)c3ccccc3c(=O)c1=2`, the T/C by setting is: under setting [4], 97 % of control; under setting [5], 95 % of control; under setting [7], 101 % of control; under setting [8], 103 % of control.

As for `CN(C)C(=O)C1C2C=CC(C2)C1C(=O)N(C)C` (stereo not drawn), the T/C is 98 % of control under setting [1], 95 % of control under setting [2] and 98 % of control under setting [3].

With `CN(N=O)C(=O)Nc1ccc(C(=O)O)cc1`, the T/C (dose: 12.0 mg/kg/injection, schedule: Q01DX Z (ip), vehicle: carboxymethylcellulose (CMC)) was 183 % of control; the T/C (dose: 17.6 mg/kg/injection, schedule: Q01DX Z (ip), vehicle: carboxymethylcellulose (CMC)) is 190 % of control; the T/C (dose: 26.4 mg/kg/injection, schedule: Q01DX Z (ip), vehicle: carboxymethylcellulose (CMC)) is 209 % of control; the T/C (dose: 40.0 mg/kg/injection, schedule: Q01DX Z (ip), vehicle: carboxymethylcellulose (CMC)) was 188 % of control and 218 % of control; the T/C (dose: 60.0 mg/kg/injection, schedule: Q01DX Z (ip), vehicle: carboxymethylcellulose (CMC)) is 118 % of control and 87 % of control; the T/C (dose: 80.0 mg/kg/injection, schedule: Q01DX Z (ip), vehicle: carboxymethylcellulose (CMC)) is 98 % of control.

For `NC1CCC1N` (stereo not drawn), the T/C is 104 % of control under setting [11], 108 % of control under setting [13] and 98 % of control under setting [15].

Take `COc1ccc2c(c1)c(C)cc[n+]2C`: the T/C reads like this: (dose: 12.5 mg/kg/injection, schedule: Q01DX001 (ip), vehicle: saline) 108 % of control; (dose: 12.5 mg/kg/injection, schedule: Q01DX009 (ip), vehicle: saline) 109 % of control; (dose: 25.0 mg/kg/injection, schedule: Q01DX001 (ip), vehicle: saline) 110 % of control; (dose: 25.0 mg/kg/injection, schedule: Q01DX009 (ip), vehicle: saline) 107 % of control; (dose: 50.0 mg/kg/injection, schedule: Q01DX001 (ip), vehicle: saline) 110 % of control; (dose: 50.0 mg/kg/injection, schedule: Q01DX009 (ip), vehicle: saline) 124 % of control.

For the molecule `O=C(CCl)c1ccc2c(c1)Nc1ccccc1S2`, the T/C is 93 % of control under setting [19], 93 % of control under setting [20] and 96 % of control under setting [21].

As to `CC(=O)Oc1c2ccccc2c(OC(C)=O)c2[nH]c(-c3ccccc3)cc12`, the T/C is 90 % of control under setting [7], 93 % of control under setting [8] and 90 % of control under setting [9].

For `Clc1ncnc2[nH]cc(Br)c12`, the T/C by setting is: under setting [19], 98 % of control; (dose: 100.0 mg/kg/injection, schedule: Q01DX001 (ip), vehicle: carboxymethylcellulose (CMC)) 104 % of control; under setting [20], 110 % of control; under setting [21], 98 % of control.

In the case of `CCCCCCCCCCCC(=O)CC`, the T/C is 96 % of control (dose: 50.0 mg/kg/injection, schedule: Q01DX009 (ip), vehicle: saline with Tween-80); 100 % of control under setting [16]; 98 % of control under setting [1]; 92 % of control and 93 % of control under setting [17]; 103 % of control under setting [2]; 94 % of control under setting [18]. Also, the T/C under setting [3] is 98 % of control.

Turning to `CCOC(=O)c1cnc(SCc2ccccc2)nc1Nc1ccccc1Cl`, the T/C by setting is: under setting [1], 94 % of control; under setting [2], 88 % of control.

Turning to `CCN(CC)COC(C)=O`, the T/C runs as follows: under setting [10], 103 % of control; under setting [12], 106 % of control; under setting [14], 106 % of control.

These data come from PubChem BioAssay AID248 (DTP/NCI, 2004).
